This is an account of results in US10259818B2, “Bicyclic azaheterocyclobenzylamines as PI3K inhibitors” (Incyte Corporation, priority 2012, dated 2019).

pIC50: −log10 of the molar value.

In one assay the test system is SUDHL-6 cell line (diffuse large B cell lymphoma). The assay is described as follows: SUDHL-6 cell proliferation assay (Example B3). It counts as cell-based. The conditions noted are these: Homo sapiens, SU-DHL-6, 72 h, SUDHL-6 cells, 3 days, Cell Titer-GLO. The method, then: Example B3: SUDHL-6 Cell Proliferation Assay
SUDHL-6 cell line (diffuse large B cell lymphoma) was purchased from ATCC (Manassas, Va.) and maintained in the culture medium recommended (RPMI and 10% FBS). To measure the anti-proliferation activity of the compounds through ATP quantitation, the SUDHL-6 cells was plated with the culture medium (5000 cells/well/per 200 μl) into 96-well polystyrene clear black tissue culture plate (Greiner-bio-one through VWR, NJ) in the presence or absence of a concentration range of test compounds. After 3 days, Cell Titer-GLO Luminescent (Promega, Madison, Wis.) cell culture agent was added to each well for 10 minutes at room temperature to stabilize the luminescent signal. This determines the number of viable cells in culture based on quantitation of the ATP present, which signals the presence of metabolically active cells. Luminescence was measured with the TopCount 384 (Packard Bioscience through Perkin Elmer, Boston, Mass.). […] IC50 data for the Examples is presented in Table 4 determined by the assay of Example B3.
A general note: ATP-based viability assays read luminescence as a measure of living cells.
In general, pIC50 refers to the negative decadic logarithm of the IC50, by convention in mol/L. The low end stands for a high IC50, the high end for a low IC50. For `CC(=O)NC1CC(N2Cc3c(C#N)c(Cl)cc(C(C)n4nc(C)c5c(N)ncnc54)c3OC(C)C2)C1` (single isomer, unassigned) [Example 67, N-{3-[9-[1-(4-Amino-3-methyl-1H-pyrazolo[3,4-d]pyrimidin-1-yl)ethyl]-7-chloro-6-cyano-2-methyl-2,3-dihydro-1,4-benzoxazepin-4(5H)-yl]cyclobutyl}acetamide], the pIC50 is not below 6.30.

`CC(=O)N1CC(N2CCOc3c(C(C)n4nc(C)c5c(N)ncnc54)cc(Cl)c(C#N)c3C2)C1` (centres unmarked) [Example 46, 4-(1-Acetylazetidin-3-yl)-9-[1-(4-amino-3-methyl-1H-pyrazolo [3,4-d]pyrimidin-1-yl)ethyl]-7-chloro-2,3,4,5-tetrahydro-1,4-benzoxazepine-6-carbonitrile] had a pIC50 not below 6.30. On the same count and under the same terms, then `Cc1nn(C(C)c2cc(Cl)c(C#N)c3c2OC(C)CN(C2CN(CC(C)(C)O)C2)C3)c2ncnc(N)c12` (single isomer, unassigned) [Example 54, 9-[1-(4-Amino-3-methyl-1H-pyrazolo[3,4-d]pyrimidin-1-yl)ethyl]-7-chloro-4-[1-(2-hydroxy-2-methylpropyl)azetidin-3-yl]-2-methyl-2,3,4,5-tetrahydro-1,4-benzoxazepine-6-carbonitrile], with not below 6.30; and `Cc1nn(C(C)c2cc(Cl)c(F)c3c2O[C@@H](C)CN(C2CN(CC(N)=O)C2)C3)c2ncnc(N)c12` (single isomer, unassigned) [Example 88], with not below 6.30; and `Cc1nn(C(C)c2cc(Cl)c(C#N)c3c2OC(C)CN(CC(N)=O)C3)c2ncnc(N)c12` (single isomer, unassigned) [Example 110, 2-[9-[1-(4-amino-3-methyl-1H-pyrazolo[3,4-d]pyrimidin-1-yl)ethyl]-7-chloro-6-cyano-2-methyl-2,3-dihydro-1,4-benzoxazepin-4(5H)-yl]acetamide], with not below 6.30.

Consider `CC(=O)N1CC(N2CCOc3c(C(C)n4nc(C)c5c(N)ncnc54)cc(Cl)c(C)c3C2)C1` (centres unmarked) [Example 4, 1-{1-[4-(1-Acetylazetidin-3-yl)-7-chloro-6-methyl-2,3,4,5-tetrahydro-1,4-benzoxazepin-9-yl]ethyl}-3-methyl-1H-pyrazolo[3,4-d]pyrimidin-4-amine], for which the pIC50 was not below 6.30. Take `Cc1c(Cl)cc(C(C)n2nc(C)c3c(N)ncnc32)c2c1CN(C1CN(C(=O)OC(C)(C)C)C1)CCO2` (centres unmarked) [Example 3, tert-Butyl 3-[9-[1-(4-amino-3-methyl-1H-pyrazolo[3,4-d]pyrimidin-1-yl)ethyl]-7-chloro-6-methyl-2,3-dihydro-1,4-benzoxazepin-4(5H)-yl]azetidine-1-carboxylate]: the pIC50 is not below 6.30. The same measure, in the same setting: then `Cc1nn(C(C)c2cc(Cl)c(C#N)c3c2OC(C)CN(Cc2cccnc2)C3)c2ncnc(N)c12` (single isomer, unassigned) [Example 60, 9-[1-(4-Amino-3-methyl-1H-pyrazolo[3,4-d]pyrimidin-1-yl)ethyl]-7-chloro-2-methyl-4-(pyridin-3-ylmethyl)-2,3,4,5-tetrahydro-1,4-benzoxazepine-6-carbonitrile], with not below 6.30. The same measure, in the same setting: then `CCNC(=O)N1CC(N2Cc3c(C#N)c(Cl)cc(C(C)n4nc(C)c5c(N)ncnc54)c3OC(C)C2)C1` (single isomer, unassigned) [Example 97, 3-[9-[1-(4-amino-3-methyl-1H-pyrazolo[3,4-d]pyrimidin-1-yl)ethyl]-7-chloro-6-cyano-2-methyl-2,3-dihydro-1,4-benzoxazepin-4(5H)-yl]-N-ethylazetidine-1-carboxamide], with not below 6.30; and `Cc1nn(C(C)c2cc(Cl)c(C#N)c3c2OC(C)CN(C2CN(C(=O)NC(C)C)C2)C3)c2ncnc(N)c12` (single isomer, unassigned) [Example 101, 3-[9-[1-(4-amino-3-methyl-1H-pyrazolo[3,4-d]pyrimidin-1-yl)ethyl]-7-chloro-6-cyano-2-methyl-2,3-dihydro-1,4-benzoxazepin-4(5H)-yl]-N-isopropylazetidine-1-carboxamide], with not below 6.30. The same measure, in the same setting: the value for `Cc1nn(C(C)c2cc(Cl)c(F)c3c2OCCN(C2CN(S(=O)(=O)N(C)C)C2)C3)c2ncnc(N)c12` (centres unmarked) [Example 74, 3-[9-[1-(4-amino-3-methyl-1H-pyrazolo[3,4-d]pyrimidin-1-yl)ethyl]-7-chloro-6-fluoro-2,3-dihydro-1,4-benzoxazepin-4(5H)-yl]-N,N-dimethylazetidine-1-sulfonamide] was 6.00 to 6.30. Consider `CNC(=O)C1CC(N2Cc3c(C#N)c(Cl)cc(C(C)n4nc(C)c5c(N)ncnc54)c3OC(C)C2)C1` (single isomer, unassigned) [Example 114, 3-[9-[1-(4-amino-3-methyl-1H-pyrazolo[3,4-d]pyrimidin-1-yl)ethyl]-7-chloro-6-cyano-2-methyl-2,3-dihydro-1,4-benzoxazepin-4(5H)-yl]-N-methylcyclobutane-carboxamide], for which the negative logarithm of the IC50 (pIC50) was not below 6.30.

In the case of `Cc1nn(C(C)c2cc(Cl)c(C#N)c3c2OCCN(CCO)C3)c2ncnc(N)c12` (centres unmarked) [Example 58, 9-[1-(4-Amino-3-methyl-1H-pyrazolo[3,4-d]pyrimidin-1-yl)ethyl]-7-chloro-4-(2-hydroxyethyl)-2,3,4,5-tetrahydro-1,4-benzoxazepine-6-carbonitrile], the pIC50 was not below 6.30. Regarding `CCOC(=O)N1CC(N2CCOc3c(C(C)n4nc(C)c5c(N)ncnc54)cc(Cl)c(C#N)c3C2)C1` (centres unmarked) [Example 92, ethyl 3-[9-[1-(4-amino-3-methyl-1H-pyrazolo[3,4-d]pyrimidin-1-yl)ethyl]-7-chloro-6-cyano-2,3-dihydro-1,4-benzoxazepin-4(5H)-yl]azetidine-1-carboxylate], the negative-log IC50 (pIC50) was not below 6.30. Still for that read-out and setting: the value for `Cc1nn(C(C)c2cc(Cl)c(C#N)c3c2OC(C)CN(CC(C)(C)O)C3)c2ncnc(N)c12` (single isomer, unassigned) [Example 65, 9-[1-(4-Amino-3-methyl-1H-pyrazolo[3,4-d]pyrimidin-1-yl)ethyl]-7-chloro-4-(2-hydroxy-2-methylpropyl)-2-methyl-2,3,4,5-tetrahydro-1,4-benzoxazepine-6-carbonitrile] was not below 6.30. On the same count and under the same terms, the value for `Cc1nn(C(C)c2cc(Cl)c(C#N)c3c2OC(C)CN(C2CN(CCO)C2)C3)c2ncnc(N)c12` (single isomer, unassigned) [Example 104, 9-[1-(4-amino-3-methyl-1H-pyrazolo[3,4-d]pyrimidin-1-yl)ethyl]-7-chloro-4-[1-(2-hydroxyethyl)azetidin-3-yl]-2-methyl-2,3,4,5-tetrahydro-1,4-benzoxazepine-6-carbonitrile] was not below 6.30; that for `Cc1nn([C@@H](C)c2cc(Cl)c(F)c3c2O[C@@H](C)CN(C2CN(C[C@@H](C)O)C2)C3)c2ncnc(N)c12` [Example 86, (2R)-1-{3-[(2S)-9-[(1S)-1-(4-amino-3-methyl-1H-pyrazolo[3,4-d]pyrimidin-1-yl)ethyl]-7-chloro-6-fluoro-2-methyl-2,3-dihydro-1,4-benzoxazepin-4(5H)-yl]azetidin-1-yl}propan-2-ol] was not below 6.30; that for `Cc1c(Cl)cc(C(C)n2nc(C)c3c(N)ncnc32)c2c1CN(c1cnccn1)CCO2` (centres unmarked) [Example 24, 1-[1-(7-Chloro-6-methyl-4-pyrazin-2-yl-2,3,4,5-tetrahydro-1,4-benzoxazepin-9-yl)ethyl]-3-methyl-1H-pyrazolo[3,4-d]pyrimidin-4-amine bis(trifluoroacetate)] was 6.00 to 6.30. `Cc1nn(C(C)c2cc(Cl)c(F)c3c2OC(C)CN(C2CN(S(N)(=O)=O)C2)C3)c2ncnc(N)c12` (single isomer, unassigned) [Example 82, 3-[9-[1-(4-amino-3-methyl-1H-pyrazolo[3,4-d]pyrimidin-1-yl)ethyl]-7-chloro-6-fluoro-2-methyl-2,3-dihydro-1,4-benzoxazepin-4(5H)-yl]azetidine-1-sulfonamide]: the pIC50 is not below 6.30.

Still in this assay, the particulars now being: SUDHL-6 cells, 3 days, Cell Titer-GLO.
Regarding `CCC1CN(CCO)Cc2c(C#N)c(Cl)cc(C(C)n3nc(C)c4c(N)ncnc43)c2O1` (single isomer, unassigned) [Example 70, 9-[1-(4-Amino-3-methyl-1H-pyrazolo[3,4-d]pyrimidin-1-yl)ethyl]-7-chloro-2-ethyl-4-(2-hydroxyethyl)-2,3,4,5-tetrahydro-1,4-benzoxazepine-6-carbonitrile], the pIC50 was not below 6.30. In turn, `Cc1nn(C(C)c2cc(Cl)c(C#N)c3c2OC(C)CN(C2CN(C(=O)NC(C)C)C2)C3)c2ncnc(N)c12` (single isomer, unassigned) [Example 102, 3-[9-[1-(4-amino-3-methyl-1H-pyrazolo[3,4-d]pyrimidin-1-yl)ethyl]-7-chloro-6-cyano-2-methyl-2,3-dihydro-1,4-benzoxazepin-4(5H)-yl]-N-isopropylazetidine-1-carboxamide] showed a pIC50 not below 6.30. Same read-out and setting: the value for `Cc1nn(C(C)c2cc(Cl)c(C#N)c3c2OC(C)CN(C2CN(S(C)(=O)=O)C2)C3)c2ncnc(N)c12` (single isomer, unassigned) [Example 94, 9-[1-(4-amino-3-methyl-1H-pyrazolo[3,4-d]pyrimidin-1-yl)ethyl]-7-chloro-2-methyl-4-[1-(methylsulfonyl)azetidin-3-yl]-2,3,4,5-tetrahydro-1,4-benzoxazepine-6-carbonitrile] was not below 6.30; that for `Cc1nn(C(C)c2cc(Cl)c(C#N)c3c2O[C@@H](C)CN(C2CN(CCO)C2)C3)c2ncnc(N)c12` (stereo partly drawn) [Example 57, (2S)-9-[1-(4-Amino-3-methyl-1H-pyrazolo[3,4-d]pyrimidin-1-yl)ethyl]-7-chloro-4-[1-(2-hydroxyethyl)azetidin-3-yl]-2-methyl-2,3,4,5-tetrahydro-1,4-benzoxazepine-6-carbonitrile] was not below 6.30.
